In ChEMBL document CHEMBL3045059, “Efficacy of ketoenols on insecticide resistant field populations of two-spotted spider mite Tetranychus urticae and sweet potato whitefly Bemisia tabaci from Greece” (2012):
≈ marks a conversion by molar mass, not a printed value.

Assays:
Type in all cases: functional
Bemisia tabaci [1] = assay: Resistance ratio, ratio of alpha-cypermethrin LC50 to compound LC50 for second-instar nymph stage of Bemisia tabaci (sweet potato whitefly) greenhouse population GR188
Bemisia tabaci [2] = assay: Resistance ratio, ratio of imidacloprid LC50 to compound LC50 for second-instar nymph stage of Bemisia tabaci (sweet potato whitefly) greenhouse population GR188
Bemisia tabaci [3] = assay: Acaricidal activity against second-instar nymph stage of Bemisia tabaci (sweet potato whitefly) greenhouse population GR194 in cotton leaves assessed as mortality incubated for 5 secs measured after 10 to 12 days
Bemisia tabaci [4] = assay: Acaricidal activity against second-instar nymph stage of Bemisia tabaci (sweet potato whitefly) field population GR259 in cotton leaves assessed as mortality incubated for 5 secs measured after 10 to 12 days
Bemisia tabaci [5] = assay: Acaricidal activity against second-instar nymph stage of Bemisia tabaci (sweet potato whitefly) laboratory strain GRMAL-RP in cotton leaves assessed as mortality incubated for 5 secs measured after 10 to 12 days
Bemisia tabaci [6] = assay: Resistance ratio, ratio of imidacloprid LC50 to compound LC50 for second-instar nymph stage of Bemisia tabaci (sweet potato whitefly) greenhouse population GR258
Bemisia tabaci [7] = assay: Acaricidal activity against second-instar nymph stage of Bemisia tabaci (sweet potato whitefly) greenhouse population GR164 in cotton leaves assessed as survival at 30 mg/l at the last selection cycle of four generations incubated for 5 secs measured after 10 to 12 days by applying constant selection pressure under laboratory conditions
Bemisia tabaci [8] = assay: Resistance ratio, ratio of alpha-cypermethrin LC50 to compound LC50 for second-instar nymph stage of Bemisia tabaci (sweet potato whitefly) greenhouse population GR258
Bemisia tabaci [9] = assay: Resistance ratio, ratio of alpha-cypermethrin LC50 to compound LC50 for second-instar nymph stage of Bemisia tabaci (sweet potato whitefly) greenhouse population GR194
Bemisia tabaci [10] = assay: Resistance ratio, ratio of imidacloprid LC50 to compound LC50 for second-instar nymph stage of Bemisia tabaci (sweet potato whitefly) greenhouse population GR164
Bemisia tabaci [11] = assay: Resistance ratio, ratio of alpha-cypermethrin LC50 to compound LC50 for second-instar nymph stage of Bemisia tabaci (sweet potato whitefly) greenhouse population GR165
Bemisia tabaci [12] = assay: Acaricidal activity against second-instar nymph stage of Bemisia tabaci (sweet potato whitefly) field population GR163 in cotton leaves assessed as mortality incubated for 5 secs measured after 10 to 12 days
Bemisia tabaci [13] = assay: Resistance ratio, ratio of alpha-cypermethrin LC50 to compound LC50 for second-instar nymph stage of Bemisia tabaci (sweet potato whitefly) field population GR259
Bemisia tabaci [14] = assay: Resistance ratio, ratio of imidacloprid LC50 to compound LC50 for second-instar nymph stage of Bemisia tabaci (sweet potato whitefly) greenhouse population GR192
Bemisia tabaci [15] = assay: Resistance ratio, ratio of imidacloprid LC50 to compound LC50 for second-instar nymph stage of Bemisia tabaci (sweet potato whitefly) greenhouse population GR187
Bemisia tabaci [16] = assay: Resistance ratio, ratio of alpha-cypermethrin LC50 to compound LC50 for second-instar nymph stage of Bemisia tabaci (sweet potato whitefly) greenhouse population GR164
Bemisia tabaci [17] = assay: Acaricidal activity against second-instar nymph stage of Bemisia tabaci (sweet potato whitefly) greenhouse population GR164 in cotton leaves assessed as survival of the parent population at 30 mg/l incubated for 5 secs measured after 10 to 12 days by applying constant selection pressure under laboratory conditions
Bemisia tabaci [18] = assay: Resistance ratio, ratio of imidacloprid LC50 to compound LC50 for second-instar nymph stage of Bemisia tabaci (sweet potato whitefly) greenhouse population GR165
Bemisia tabaci [19] = assay: Resistance ratio, ratio of imidacloprid LC50 to compound LC50 for second-instar nymph stage of Bemisia tabaci (sweet potato whitefly) greenhouse population GR191
Bemisia tabaci [20] = assay: Acaricidal activity against second-instar nymph stage of Bemisia tabaci (sweet potato whitefly) field population GR157 in cotton leaves assessed as mortality incubated for 5 secs measured after 10 to 12 days
Bemisia tabaci [21] = assay: Resistance ratio, ratio of imidacloprid LC50 to compound LC50 for second-instar nymph stage of Bemisia tabaci (sweet potato whitefly) field population GR163
Bemisia tabaci [22] = assay: Resistance ratio, ratio of imidacloprid LC50 to compound LC50 for second-instar nymph stage of Bemisia tabaci (sweet potato whitefly) greenhouse population GR194
Bemisia tabaci [23] = assay: Acaricidal activity against second-instar nymph stage of Bemisia tabaci (sweet potato whitefly) greenhouse population GR187 in cotton leaves assessed as mortality incubated for 5 secs measured after 10 to 12 days
Bemisia tabaci [24] = assay: Acaricidal activity against second-instar nymph stage of Bemisia tabaci (sweet potato whitefly) greenhouse population GR164 in cotton leaves assessed as mortality incubated for 5 secs measured after 10 to 12 days
Bemisia tabaci [25] = assay: Resistance ratio, ratio of alpha-cypermethrin LC50 to compound LC50 for second-instar nymph stage of Bemisia tabaci (sweet potato whitefly) laboratory strain GRMAL-RP
Bemisia tabaci [26] = assay: Acaricidal activity against second-instar nymph stage of Bemisia tabaci (sweet potato whitefly) greenhouse population GR192 in cotton leaves assessed as mortality incubated for 5 secs measured after 10 to 12 days
Bemisia tabaci [27] = assay: Resistance ratio, ratio of alpha-cypermethrin LC50 to compound LC50 for second-instar nymph stage of Bemisia tabaci (sweet potato whitefly) field population GR163
Bemisia tabaci [28] = assay: Acaricidal activity against second-instar nymph stage of Bemisia tabaci (sweet potato whitefly) greenhouse population GR165 in cotton leaves assessed as mortality incubated for 5 secs measured after 10 to 12 days
Bemisia tabaci [29] = assay: Acaricidal activity against second-instar nymph stage of Bemisia tabaci (sweet potato whitefly) greenhouse population GR258 in cotton leaves assessed as mortality incubated for 5 secs measured after 10 to 12 days
Bemisia tabaci [30] = assay: Acaricidal activity against second-instar nymph stage of Bemisia tabaci (sweet potato whitefly) laboratory strain GRMAL-RN in cotton leaves assessed as mortality incubated for 5 secs measured after 10 to 12 days
Bemisia tabaci [31] = assay: Resistance ratio, ratio of alpha-cypermethrin LC50 to compound LC50 for second-instar nymph stage of Bemisia tabaci (sweet potato whitefly) greenhouse population GR191
Bemisia tabaci [32] = assay: Acaricidal activity against second-instar nymph stage of Bemisia tabaci (sweet potato whitefly) greenhouse population GR191 in cotton leaves assessed as mortality incubated for 5 secs measured after 10 to 12 days
Bemisia tabaci [33] = assay: Resistance ratio, ratio of imidacloprid LC50 to compound LC50 for second-instar nymph stage of Bemisia tabaci (sweet potato whitefly) laboratory strain GRMAL-RN
Bemisia tabaci [34] = assay: Resistance ratio, ratio of alpha-cypermethrin LC50 to compound LC50 for second-instar nymph stage of Bemisia tabaci (sweet potato whitefly) greenhouse population GR187
Bemisia tabaci [35] = assay: Resistance ratio, ratio of alpha-cypermethrin LC50 to compound LC50 for second-instar nymph stage of Bemisia tabaci (sweet potato whitefly) field population GR157
Bemisia tabaci [36] = assay: Acaricidal activity against second-instar nymph stage of Bemisia tabaci (sweet potato whitefly) greenhouse population GR188 in cotton leaves assessed as mortality incubated for 5 secs measured after 10 to 12 days
Bemisia tabaci [37] = assay: Resistance ratio, ratio of imidacloprid LC50 to compound LC50 for second-instar nymph stage of Bemisia tabaci (sweet potato whitefly) field population GR157
Bemisia tabaci [38] = assay: Resistance ratio, ratio of alpha-cypermethrin LC50 to compound LC50 for second-instar nymph stage of Bemisia tabaci (sweet potato whitefly) greenhouse population GR192
Bemisia tabaci [39] = assay: Resistance ratio, ratio of imidacloprid LC50 to compound LC50 for second-instar nymph stage of Bemisia tabaci (sweet potato whitefly) field population GR259

Structure (SMILES): Cc1cc(C)c(C2=C(OC(=O)CC(C)(C)C)C3(CCCC3)OC2=O)c(C)c1 [SPIROMESIFEN]
- RatioLC50 (Bemisia tabaci [1]): 105
- RatioLC50 (Bemisia tabaci [2]): 353
- LC95 (Bemisia tabaci [3]): 49.23 µg/mL (≈ 133 µM)
- LC50 (Bemisia tabaci [3]; Bemisia tabaci, GR194, Nymph stage): 6.4 µg/mL (≈ 17.3 µM)
- LC95 (Bemisia tabaci [4]): 30.74 µg/mL (≈ 83 µM)
- LC50 (Bemisia tabaci [4]; Bemisia tabaci, GR259, Nymph stage): 7.9 µg/mL (≈ 21.3 µM)
- LC95 (Bemisia tabaci [5]): 50.31 µg/mL (≈ 136 µM)
- LC50 (Bemisia tabaci [5]; Bemisia tabaci, GRMAL-RP, Nymph stage): 1.1 µg/mL (≈ 2.97 µM)
- RatioLC50 (Bemisia tabaci [6]): 369
- survival at 30 µg/mL (Bemisia tabaci [7]): 13%
- RatioLC50 (Bemisia tabaci [8]): 1190
- RatioLC50 (Bemisia tabaci [9]): 142
- RatioLC50 (Bemisia tabaci [10]): 7
- RatioLC50 (Bemisia tabaci [11]): 256
- LC95 (Bemisia tabaci [12]): 85.08 µg/mL (≈ 230 µM)
- LC50 (Bemisia tabaci [12]; Bemisia tabaci, GR163, Nymph stage): 11.6 µg/mL (≈ 31.3 µM)
- RatioLC50 (Bemisia tabaci [13]): 741
- RatioLC50 (Bemisia tabaci [14]): 323
- RatioLC50 (Bemisia tabaci [15]): 94
- RatioLC50 (Bemisia tabaci [16]): 42
- survival at 30 µg/mL (Bemisia tabaci [17]): 27%
- RatioLC50 (Bemisia tabaci [18]): 73
- RatioLC50 (Bemisia tabaci [19]): 120
- LC95 (Bemisia tabaci [20]): 139.9 µg/mL (≈ 378 µM)
- LC50 (Bemisia tabaci [20]; Bemisia tabaci, GR157, Nymph stage): 5.4 µg/mL (≈ 14.6 µM)
- RatioLC50 (Bemisia tabaci [21]): 46
- RatioLC50 (Bemisia tabaci [22]): 247
- LC95 (Bemisia tabaci [23]): 24.95 µg/mL (≈ 67.3 µM)
- LC50 (Bemisia tabaci [23]; Bemisia tabaci, GR187, Nymph stage): 4.6 µg/mL (≈ 12.4 µM)
- LC95 (Bemisia tabaci [24]): 69.44 µg/mL (≈ 187 µM)
- LC50 (Bemisia tabaci [24]; Bemisia tabaci, GR164, Nymph stage): 12 µg/mL (≈ 32.4 µM)
- RatioLC50 (Bemisia tabaci [25]): >621
- LC95 (Bemisia tabaci [26]): 44.79 µg/mL (≈ 121 µM)
- LC50 (Bemisia tabaci [26]; Bemisia tabaci, GR192, Nymph stage): 14 µg/mL (≈ 37.8 µM)
- RatioLC50 (Bemisia tabaci [27]): 478
- LC95 (Bemisia tabaci [28]): 37.16 µg/mL (≈ 100 µM)
- LC50 (Bemisia tabaci [28]; Bemisia tabaci, GR165, Nymph stage): 4.5 µg/mL (≈ 12.1 µM)
- LC95 (Bemisia tabaci [29]): 49.19 µg/mL (≈ 133 µM)
- LC50 (Bemisia tabaci [29]; Bemisia tabaci, GR258, Nymph stage): 12 µg/mL (≈ 32.4 µM)
- LC95 (Bemisia tabaci [30]): 47.61 µg/mL (≈ 129 µM)
- LC50 (Bemisia tabaci [30]; Bemisia tabaci, GRMAL-RN, Nymph stage): 6.7 µg/mL (≈ 18.1 µM)
- RatioLC50 (Bemisia tabaci [31]): 179
- LC95 (Bemisia tabaci [32]): 18.62 µg/mL (≈ 50.3 µM)
- LC50 (Bemisia tabaci [32]; Bemisia tabaci, GR191, Nymph stage): 5.1 µg/mL (≈ 13.8 µM)
- RatioLC50 (Bemisia tabaci [33]): 958
- RatioLC50 (Bemisia tabaci [34]): 101
- RatioLC50 (Bemisia tabaci [35]): 426
- LC95 (Bemisia tabaci [36]): 21.41 µg/mL (≈ 57.8 µM)
- LC50 (Bemisia tabaci [36]; Bemisia tabaci, GR188, Nymph stage): 6.1 µg/mL (≈ 16.5 µM)
- RatioLC50 (Bemisia tabaci [37]): 88
- RatioLC50 (Bemisia tabaci [38]): 179
- RatioLC50 (Bemisia tabaci [39]): 323
